Reference: the supplement of paper PMC10331698
± gives the standard deviation of the averaged measurements.

Tests used:
Experiment in all cases: level (log10 ratio to DMSO vehicle control); higher = higher biomarker level / cell amount than vehicle control
[1] = compound: CO[Si](C)(CCC(F)(F)C(F)(F)C(F)(F)C(F)(F)C(F)(F)C(F)(F)F)OC [Dimethoxymethyl((perfluorohexyl)ethyl)silane] (in DMSO)
Procedure: (§1)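 BioMAP Diversity Plus panel of 12 human primary cell co-culture systems (3C, 4H, LPS, SAg, BT, BF4T, BE3C, CASM3C, HDF3CGF, KF3CT, MyoF, Mphg). Compounds were added 1 h before stimulation and left for 24 h (MyoF 48 h; BT 72 h for soluble read-outs or 6 d for IgG). Biomarkers were read by ELISA, cytotoxicity by SRB, PBMC viability and proliferation by Alamar Blue. Each well value was divided by the mean of 8 DMSO control wells on the same plate and log10 transformed; duplicate blinded samples were tested at 4 concentrations.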

Perfluoroundecanoic acid = compound: O=C(O)C(F)(F)C(F)(F)C(F)(F)C(F)(F)C(F)(F)C(F)(F)C(F)(F)C(F)(F)C(F)(F)C(F)(F)F [Perfluoroundecanoic acid] (in DMSO); conditions: 6700 nM
Procedure: as §1

[2] = compound: CCOC(=O)CC(=O)C(F)(F)C(F)(F)F [Ethyl pentafluoropropionyl acetate] (in DMSO)
Procedure: as §1

[3] = compound: OCCC(F)(F)C(F)(F)C(F)(F)C(F)(F)F [4:2 Fluorotelomer alcohol] (in DMSO)
Procedure: as §1

[4] = compound: O=C(O)CCC(F)(C(F)(F)F)C(F)(F)F [4,4-bis(Trifluoromethyl)-4-fluoropropanoic acid] (in DMSO)
Procedure: as §1

[5] = compound: CN(C(=O)C(F)(F)C(F)(F)C(F)(F)F)[Si](C)(C)C [N-Methyl-N-trimethylsilylheptafluorobutyramide] (in DMSO)
Procedure: as §1

[6] = compound: O=C(O)C=C(C(F)(F)F)C(F)(F)F [3,3-Bis(trifluoromethyl)-2-propenoic acid] (in DMSO)
Procedure: as §1

Test System | level (log10) ([1]; 6700 nM) | level (log10) ([1]; 20000 nM) | level (log10) (Perfluoroundecanoic acid) | level (log10) ([2]; 6700 nM) | level (log10) ([2]; 20000 nM) | level (log10) ([2]; 60000 nM) | level (log10) ([3]; 6700 nM) | level (log10) ([3]; 20000 nM) | level (log10) ([3]; 60000 nM) | level (log10) ([4]; 6700 nM) | level (log10) ([4]; 20000 nM) | level (log10) ([4]; 60000 nM) | level (log10) ([5]; 6700 nM) | level (log10) ([5]; 20000 nM) | level (log10) ([5]; 60000 nM) | level (log10) ([6]; 6700 nM) | level (log10) ([6]; 20000 nM) | level (log10) ([6]; 60000 nM)
MyoF:Decorin | -0.0005 ± 0.0021 | 0.029 ± 0.034 | -0.026 ± 0.035 | -0.0135 ± 0.026 | -0.0025 ± 0.016 | 0.023 ± 0.014 | -0.0155 ± 0.066 | 0.003 ± 0.028 | 0.0645 ± 0.026 | -0.0215 ± 0.025 | -0.015 ± 0.044 | -0.001 ± 0.04 | 0.009 ± 0.011 | 0.0095 ± 0.018 | 0.03 ± 0.042 | -0.0275 ± 0.0021 | -0.043 ± 0.024 | -0.057 ± 0.045
MyoF:MMP-1 | -0.001 ± 0.011 | -0.012 ± 0.017 | -0.036 ± 0.018 | -0.0245 ± 0.03 | -0.0125 ± 0.011 | 0.034 ± 0.058 | -0.0345 ± 0.04 | -0.026 ± 0.027 | 0.0215 ± 0.0064 | 0.0125 ± 0.013 | -0.0265 ± 0.00071 | 0 ± 0.011 | -0.007 ± 0.0028 | -0.0055 ± 0.005 | -0.017 ± 0.018 | -0.0075 ± 0.0092 | -0.0445 ± 0.0078 | -0.0085 ± 0.093
MyoF:PAI-I | 0.0075 ± 0.0092 | 0.008 ± 0.0014 | -0.01 ± 0.018 | -0.0005 ± 0.021 | 0.006 ± 0.017 | 0.0055 ± 0.015 | -0.0185 ± 0.018 | -0.0215 ± 0.019 | -0.0155 ± 0.00071 | -0.005 ± 0.0057 | -0.007 ± 0.0042 | -0.006 ± 0.0099 | -0.009 ± 0.021 | 0.0095 ± 0.015 | 0.0105 ± 0.0092 | -0.005 ± 0.0042 | 0.0045 ± 0.0064 | 0.005 ± 0.02
MyoF:SRB | 0.0045 ± 0.0064 | 0.0005 ± 0.00071 | -0.029 ± 0.014 | -0.001 ± 0.0028 | -0.0065 ± 0.00071 | -0.0045 ± 0.00071 | -0.0015 ± 0.0035 | 0.0015 ± 0.0035 | -0.0015 ± 0.005 | -0.004 ± 0.0028 | -0.003 ± 0.0014 | 0.0025 ± 0.0021 | 0.0035 ± 0.012 | 0.0035 ± 0.0035 | 0.0055 ± 0.0035 | 0.0005 ± 0.012 | -0.005 ± 0.0014 | -0.024 ± 0.0071
MyoF:TIMP-1 | -0.0175 ± 0.0035 | -0.0295 ± 0.018 | -0.117 ± 0.055 | -0.005 ± 0.023 | -0.012 ± 0.023 | 0.0125 ± 0.022 | -0.001 ± 0.04 | 0.013 ± 0.075 | 0.009 ± 0.059 | -0.0245 ± 0.091 | -0.042 ± 0.064 | -0.0345 ± 0.025 | -0.0385 ± 0.019 | -0.027 ± 0.014 | -0.017 | -0.0545 ± 0.025 | -0.023 ± 0.023 | -0.0085 ± 0.077
MyoF:alpha-SM Actin | -0.0045 ± 0.0064 | -0.018 ± 0.018 | -0.061 ± 0.0085 | -0.0145 ± 0.03 | -0.0235 ± 0.0078 | -0.019 ± 0.013 | -0.021 | -0.0225 ± 0.0035 | -0.0345 ± 0.018 | 0.0205 ± 0.093 | 0.03 ± 0.095 | 0.0195 ± 0.079 | 0.0035 ± 0.0021 | -0.01 ± 0.0014 | 0.0005 ± 0.021 | -0.003 ± 0.054 | -0.01 ± 0.067 | -0.0795 ± 0.044
MyoF:bFGF | 0.002 ± 0.0085 | 0.0055 ± 0.011 | 0.0035 ± 0.0092 | -0.0045 ± 0.0064 | 0.0015 ± 0.0021 | 0.0135 ± 0.012 | -0.0015 ± 0.013 | -0.0025 ± 0.015 | 0.004 ± 0.044 | 0.005 ± 0.025 | 0.002 ± 0.023 | 0.0155 ± 0.015 | 0.0025 ± 0.0078 | 0.012 ± 0.0042 | 0.0125 ± 0.012 | 0.0125 ± 0.0064 | 0.0075 ± 0.019 | 0.0325 ± 0.019
lMphg:CCL2/MCP-1 | -0.027 ± 0.0057 | 0.001 ± 0.033 | 0.0025 ± 0.028 | -0.023 ± 0.045 | -0.0135 ± 0.021 | 0.0125 ± 0.037 | -0.018 ± 0.024 | -0.0325 ± 0.0035 | -0.014 ± 0.031 | -0.01 ± 0.017 | 0.0105 ± 0.0064 | 0.011 ± 0.017 | -0.023 ± 0.0085 | -0.019 ± 0.0028 | 0.002 ± 0.034 | -0.007 ± 0.0028 | -0.016 ± 0.0028 | -0.078 ± 0.061
lMphg:CCL3/MIP-1alpha | -0.012 ± 0.0099 | 0.0065 ± 0.023 | -0.004 ± 0.023 | -0.0265 ± 0.026 | -0.0305 ± 0.0078 | 0.0075 ± 0.022 | -0.009 ± 0.0042 | -0.011 ± 0.014 | 0.0005 ± 0.019 | 0.03 ± 0.047 | 0.0255 ± 0.025 | 0.021 ± 0.035 | -0.007 ± 0.0057 | -0.018 ± 0.011 | 0.0255 ± 0.032 | -0.0065 ± 0.071 | -0.0015 ± 0.023 | -0.0075 ± 0.016
lMphg:CD40 | -0.006 ± 0.0014 | -0.012 ± 0.013 | -0.008 ± 0.018 | -0.0205 ± 0.0092 | -0.0135 ± 0.0092 | 0.003 ± 0.061 | 0.0015 ± 0.013 | 0.016 ± 0.0085 | 0.0025 ± 0.015 | 0.0025 ± 0.016 | -0.001 ± 0.041 | -0.031 ± 0.041 | -0.008 ± 0.027 | -0.016 | -0.0145 ± 0.022 | -0.0255 ± 0.00071 | -0.0545 ± 0.0035 | -0.071 ± 0.014
lMphg:CD62E/E-Selectin | 0.019 ± 0.0099 | 0.0135 ± 0.033 | -0.004 ± 0.041 | -0.036 ± 0.02 | -0.0245 ± 0.012 | 0.0115 ± 0.025 | -0.0075 ± 0.022 | -0.003 ± 0.013 | 0.0185 ± 0.0021 | -0.02 ± 0.038 | -0.0155 ± 0.035 | -0.0285 ± 0.06 | -0.0115 ± 0.00071 | 0.0015 ± 0.0021 | 0.0065 ± 0.0021 | -0.049 ± 0.0085 | -0.068 ± 0.02 | -0.14 ± 0.034
lMphg:CD69 | -0.0205 ± 0.018 | -0.0435 ± 0.037 | -0.048 ± 0.083 | -0.0405 ± 0.0064 | 0.0005 ± 0.064 | 0.0075 ± 0.12 | 0.0115 ± 0.07 | 0.007 ± 0.041 | 0.0155 ± 0.0035 | 0.015 ± 0.0071 | 0 ± 0.027 | -0.021 ± 0.0042 | 0.0015 ± 0.005 | -0.0075 ± 0.035 | -0.039 ± 0.045 | -0.069 ± 0.024 | -0.0915 ± 0.0078 | -0.0275 ± 0.067
lMphg:CD106/VCAM-1 | 0.009 ± 0.021 | -0.009 ± 0.028 | -0.004 ± 0.0057 | -0.023 ± 0.0028 | 0.013 ± 0.0028 | 0.0195 ± 0.005 | -0.0025 ± 0.016 | 0.0005 ± 0.011 | 0.0005 ± 0.025 | -0.007 ± 0.011 | 0.0005 ± 0.0092 | -0.009 ± 0.017 | -0.025 ± 0.0028 | -0.0055 ± 0.025 | -0.028 ± 0.042 | -0.0205 ± 0.005 | -0.025 ± 0.0099 | -0.0935 ± 0.0064
lMphg:CXCL8/IL-8 | -0.0095 ± 0.029 | 0.0025 ± 0.015 | 0.01 ± 0.013 | -0.0295 ± 0.023 | -0.01 ± 0.0042 | 0.0095 ± 0.049 | 0.003 | 0.0065 ± 0.033 | 0.0275 ± 0.035 | 0.017 ± 0.059 | 0.032 ± 0.024 | 0.01 ± 0.076 | -0.0215 ± 0.0078 | 0.009 ± 0.027 | 0.0155 ± 0.025 | 0.081 ± 0.016 | 0.123 ± 0.014 | 0.201 ± 0.047
lMphg:IL-1alpha | -0.032 ± 0.0014 | 0.0125 ± 0.073 | 0.022 ± 0.045 | -0.0145 ± 0.011 | -0.016 ± 0.024 | 0.0045 ± 0.0092 | -0.0295 ± 0.013 | -0.0105 ± 0.005 | 0.0075 ± 0.028 | 0.0125 ± 0.07 | 0.022 ± 0.011 | 0.0125 ± 0.026 | -0.038 ± 0.0014 | -0.034 ± 0.0071 | 0.017 ± 0.052 | -0.073 ± 0.068 | -0.0565 ± 0.052 | -0.043 ± 0.075
lMphg:M-CSF | -0.0075 ± 0.036 | 0.0135 ± 0.025 | 0.016 ± 0.02 | -0.01 ± 0.0099 | -0.001 ± 0.028 | 0.005 ± 0.0014 | -0.021 ± 0.017 | -0.003 ± 0.018 | -0.0025 ± 0.039 | -0.0115 ± 0.043 | -0.0135 ± 0.032 | -0.0165 ± 0.019 | -0.033 ± 0.014 | -0.018 ± 0.025 | -0.0045 ± 0.0064 | -0.033 ± 0.0071 | -0.021 ± 0.021 | -0.0325 ± 0.022
